The record followed here is publication doi:10.1101/2025.08.22.671821v1, “Cross-regulation of (p)ppGpp and c-di-GMP pathways controls a cell-cycle transition” (biorxiv, 2025).

Test [1] has as its target T1, PleDSM (Sinorhizobium meliloti, UniProt Q92QM5).
T1 construct: gene pleD; His-tagged, pET28a-pleDSM, E. coli BL21(DE3), Ni-NTA and SEC
T1 sequence (Q92QM5 1-455): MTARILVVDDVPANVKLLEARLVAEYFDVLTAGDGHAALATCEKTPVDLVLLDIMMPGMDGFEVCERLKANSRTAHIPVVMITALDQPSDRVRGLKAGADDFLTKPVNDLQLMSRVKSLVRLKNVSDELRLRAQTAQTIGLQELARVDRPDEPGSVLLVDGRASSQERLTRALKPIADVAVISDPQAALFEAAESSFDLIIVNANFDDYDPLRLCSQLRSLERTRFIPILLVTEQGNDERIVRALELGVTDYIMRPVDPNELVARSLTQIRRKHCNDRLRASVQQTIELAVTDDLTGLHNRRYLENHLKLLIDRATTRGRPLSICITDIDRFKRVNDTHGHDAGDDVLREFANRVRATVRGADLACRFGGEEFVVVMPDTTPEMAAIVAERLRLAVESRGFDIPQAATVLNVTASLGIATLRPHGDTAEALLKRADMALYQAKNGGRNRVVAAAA
The test can be described thus: c-di-GMP synthesis, C18-HPLC. Particulars: 100 µM GTP, 40 µM protein, 10 mM MgCl2, pH 7.8, 25 °C. In kind it is biochemical.

The target in test [2] is T2, WspR (Pseudomonas aeruginosa, UniProt Q9HXT9).
T2 construct: His-tagged, pET28a-wspR, E. coli BL21(DE3), Ni-NTA and SEC
Put plainly: c-di-GMP synthesis, C18-HPLC. It is filed as biochemical. The conditions noted are these: 100 µM GTP, 40 µM protein, 10 mM MgCl2, pH 7.8, 25 °C.

Test [3] concerns the target T3, PleD (PleDCC) (Caulobacter vibrioides, UniProt B8GZM2).
T3 construct: full-length D1-D2-DGC, His-tagged, pET11b-pleD, E. coli BL21(DE3), Ni-NTA and SEC; unphosphorylated
T3 sequence (B8GZM2 1-454): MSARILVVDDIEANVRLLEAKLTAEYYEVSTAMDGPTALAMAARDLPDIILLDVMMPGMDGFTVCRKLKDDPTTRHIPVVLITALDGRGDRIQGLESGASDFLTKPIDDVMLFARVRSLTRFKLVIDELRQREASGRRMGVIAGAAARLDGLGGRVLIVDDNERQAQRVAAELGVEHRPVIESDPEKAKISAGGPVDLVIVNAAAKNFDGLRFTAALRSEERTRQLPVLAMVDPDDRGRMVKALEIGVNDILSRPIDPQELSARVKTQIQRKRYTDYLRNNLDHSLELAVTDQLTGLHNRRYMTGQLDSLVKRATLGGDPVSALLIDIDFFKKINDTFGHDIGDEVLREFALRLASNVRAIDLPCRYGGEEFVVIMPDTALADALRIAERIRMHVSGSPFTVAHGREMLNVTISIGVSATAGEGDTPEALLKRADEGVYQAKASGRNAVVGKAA
Put plainly: ITC. It is filed as binding.

For test [4], the target named is T3, PleD (PleDCC). The test can be described thus: crystal structure ([…] and […] Å). Particulars: I-site (inhibitory site), two molecules per monomer; with ppGpp (9G85) or pppGpp (9G86). In kind it is binding.
Test [5] has as its target T3, PleD (PleDCC). The test can be described thus: c-di-GMP synthesis, C18-HPLC. It is filed as biochemical.
Test [6] deals with T4, PleDAT (Agrobacterium fabrum, UniProt A9CJ98).
T4 construct: gene pleD; His-tagged, pET28a-pleDAT, E. coli BL21(DE3), Ni-NTA and SEC
The test can be described thus: nanoDSF. In kind it is binding. The conditions noted are these: 100 µM protein, 1 mM ligand, pH 7.8, 5 mM MgCl2.

The target of test [7] is T1, PleDSM. Put plainly: c-di-GMP synthesis, C18-HPLC. It is filed as biochemical. The conditions noted are these: 100 µM GTP, 40 µM protein, 10 mM MgCl2, pH 7.8, 25 °C, 2 h.
The target in test [8] is T4, PleDAT. The test can be described thus: c-di-GMP synthesis, C18-HPLC. In kind it is biochemical. The conditions noted are these: 100 µM GTP, 40 µM protein, 10 mM MgCl2, pH 7.8, 25 °C, 2 h.
Test [9] concerns the target T2, WspR. The test can be described thus: c-di-GMP synthesis, C18-HPLC. It is filed as biochemical.

T4 sequence (A9CJ98 entry or part of it): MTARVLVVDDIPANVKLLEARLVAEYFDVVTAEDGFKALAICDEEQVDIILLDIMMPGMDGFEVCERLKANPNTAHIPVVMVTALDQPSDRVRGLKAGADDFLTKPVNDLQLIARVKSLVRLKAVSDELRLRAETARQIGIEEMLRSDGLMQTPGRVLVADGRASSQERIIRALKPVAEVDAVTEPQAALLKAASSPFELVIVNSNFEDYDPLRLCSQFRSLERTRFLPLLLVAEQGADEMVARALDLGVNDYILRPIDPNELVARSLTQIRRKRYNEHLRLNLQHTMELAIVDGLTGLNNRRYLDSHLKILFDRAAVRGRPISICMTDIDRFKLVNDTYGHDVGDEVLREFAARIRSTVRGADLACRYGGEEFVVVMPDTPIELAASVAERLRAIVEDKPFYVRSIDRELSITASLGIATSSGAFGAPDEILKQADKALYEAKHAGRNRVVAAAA
T2 sequence (Q9HXT9 entry or part of it): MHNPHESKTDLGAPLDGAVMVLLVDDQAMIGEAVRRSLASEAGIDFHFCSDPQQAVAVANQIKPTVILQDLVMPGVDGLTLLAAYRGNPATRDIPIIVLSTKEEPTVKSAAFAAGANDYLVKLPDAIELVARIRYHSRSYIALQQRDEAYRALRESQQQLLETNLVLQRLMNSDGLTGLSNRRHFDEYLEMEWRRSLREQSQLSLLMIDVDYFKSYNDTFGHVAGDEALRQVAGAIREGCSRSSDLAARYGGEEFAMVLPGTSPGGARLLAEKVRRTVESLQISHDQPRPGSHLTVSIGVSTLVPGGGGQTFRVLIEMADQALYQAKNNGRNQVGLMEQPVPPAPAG

As for `Nc1nc2c(ncn2[C@@H]2O[C@H](COP(=O)(O)OP(=O)(O)OP(=O)(O)O)[C@@H](O)[C@H]2O)c(=O)[nH]1` [GTP], the “c-di-GMP synthesis, C18-HPLC” value on PleDSM [1] and on WspR [2] was “c-di-GMP production by different diguanylate cyclases (DGCs)” each time.

In turn, `Nc1nc2c(ncn2[C@@H]2O[C@H](COP(=O)(O)CP(=O)(O)OP(=O)(O)O)[C@@H](O)[C@H]2O)c(=O)[nH]1` [GpCpp] showed a Kd at PleD (PleDCC) [3] of 6.01 ± 1.52 µM.

`Nc1nc2c(ncn2[C@@H]2O[C@@H]3COP(=O)(O)O[C@H]4[C@@H](O)[C@H](n5cnc6c(=O)[nH]c(N)nc65)O[C@@H]4COP(=O)(O)O[C@H]3[C@H]2O)c(=O)[nH]1` [c-di-GMP]: the “crystal structure (2.9 and 3 Å)” value at PleD (PleDCC) [4] is listed as “each monomer of the (p)ppGpp-PleD structures is bound by two cyclic di-GMP molecules”.

Take `Nc1nc2c(ncn2[C@@H]2O[C@H](COP(=O)(O)OP(=O)(O)O)[C@@H](OP(=O)(O)OP(=O)(O)O)[C@H]2O)c(=O)[nH]1` [ppGpp]: the inhibition at 500 µM against PleD (PleDCC) [5] was above 50%. On PleDAT [6], the ΔTm entry is recorded as “NanoDSF assays further confirmed PleDAT binding to (p)ppGpp”. Besides, the “% inhibition at 500 μM” value was “ppGpp and pppGpp strongly inhibited c-di-GMP production” at PleDSM [7]; “ppGpp and pppGpp strongly inhibited c-di-GMP production” at PleDAT [8]. At PleD (PleDCC) [3], this compound had a Kd of 45.4 ± 22.3 µM.

In the case of `Nc1nc2c(ncn2[C@@H]2O[C@H](COP(=O)(O)OP(=O)(O)OP(=O)(O)O)[C@@H](OP(=O)(O)OP(=O)(O)O)[C@H]2O)c(=O)[nH]1` [pppGpp], the inhibition at 500 µM was above 90% against PleD (PleDCC) [5] and above 50% on WspR [9]. At PleDAT [6], the ΔTm result is recorded as “NanoDSF assays further confirmed PleDAT binding to (p)ppGpp”. Further, the “% inhibition at 500 μM” value at PleDSM [7] was “ppGpp and pppGpp strongly inhibited c-di-GMP production, with pppGpp showing greater potency”; on PleDAT [8] it was “ppGpp and pppGpp strongly inhibited c-di-GMP production, with pppGpp showing greater potency”. This compound displayed a Kd on PleD (PleDCC) [3] of 9.31 ± 1.16 µM.
